According to US6300350A, “Treatment of emphysema using RARy selective retinoid agonists” (priority 2000, dated 2001):

Legend:
RARα [1] = target: T1, RARα (Homo sapiens, UniProt P10276); assay: Transactivation, RARα; assay type: cell-based; conditions: Table II
T1 sequence (P10276 1-462): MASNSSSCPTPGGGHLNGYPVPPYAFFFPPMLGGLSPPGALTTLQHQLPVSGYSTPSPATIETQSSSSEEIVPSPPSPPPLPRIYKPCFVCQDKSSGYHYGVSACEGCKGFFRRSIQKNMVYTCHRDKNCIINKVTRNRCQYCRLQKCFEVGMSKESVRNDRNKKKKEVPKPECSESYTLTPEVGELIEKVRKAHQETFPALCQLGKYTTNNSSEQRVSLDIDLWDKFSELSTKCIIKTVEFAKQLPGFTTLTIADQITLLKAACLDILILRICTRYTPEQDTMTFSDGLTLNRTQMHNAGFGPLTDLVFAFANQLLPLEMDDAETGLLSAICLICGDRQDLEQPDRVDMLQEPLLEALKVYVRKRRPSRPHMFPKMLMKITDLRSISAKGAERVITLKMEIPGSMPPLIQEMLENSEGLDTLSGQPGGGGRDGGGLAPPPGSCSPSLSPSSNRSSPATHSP
Text: (§1) As used herein, the term "transactivation" refers to the ability of a retinoid to activate the transcription of a gene where the gene transcription is initiated by the binding of a ligand to the particular retinoic acid receptor being tested, i.e., RARα, RARβ, or RARγ. Determining the ability of a compound to transactivate a retinoic acid receptor may be performed by methods known to those of skill in the art. […] Apfel etal., Proc. Nat.

RARβ [2] = target: T2, RARβ (Homo sapiens, UniProt P10826); assay: Transactivation, RARβ; assay type: cell-based; conditions: Table II
T2 sequence (P10826 1-455): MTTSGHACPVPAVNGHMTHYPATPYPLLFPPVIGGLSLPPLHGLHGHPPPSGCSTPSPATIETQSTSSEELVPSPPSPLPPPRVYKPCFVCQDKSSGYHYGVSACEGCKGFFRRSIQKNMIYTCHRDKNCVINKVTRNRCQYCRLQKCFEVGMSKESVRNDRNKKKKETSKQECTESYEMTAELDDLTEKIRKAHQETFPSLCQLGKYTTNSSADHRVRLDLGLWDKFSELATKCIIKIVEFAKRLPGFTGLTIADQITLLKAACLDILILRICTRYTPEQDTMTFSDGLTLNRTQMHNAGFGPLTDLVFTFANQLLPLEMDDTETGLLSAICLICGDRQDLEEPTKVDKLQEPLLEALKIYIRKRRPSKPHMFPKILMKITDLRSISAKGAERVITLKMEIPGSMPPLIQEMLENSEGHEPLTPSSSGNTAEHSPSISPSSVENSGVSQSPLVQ
Text: as §1

RARγ [3] = target: T3, RARγ (Homo sapiens, UniProt P13631); assay: Transactivation, RARγ; assay type: cell-based
T3 sequence (P13631 1-454): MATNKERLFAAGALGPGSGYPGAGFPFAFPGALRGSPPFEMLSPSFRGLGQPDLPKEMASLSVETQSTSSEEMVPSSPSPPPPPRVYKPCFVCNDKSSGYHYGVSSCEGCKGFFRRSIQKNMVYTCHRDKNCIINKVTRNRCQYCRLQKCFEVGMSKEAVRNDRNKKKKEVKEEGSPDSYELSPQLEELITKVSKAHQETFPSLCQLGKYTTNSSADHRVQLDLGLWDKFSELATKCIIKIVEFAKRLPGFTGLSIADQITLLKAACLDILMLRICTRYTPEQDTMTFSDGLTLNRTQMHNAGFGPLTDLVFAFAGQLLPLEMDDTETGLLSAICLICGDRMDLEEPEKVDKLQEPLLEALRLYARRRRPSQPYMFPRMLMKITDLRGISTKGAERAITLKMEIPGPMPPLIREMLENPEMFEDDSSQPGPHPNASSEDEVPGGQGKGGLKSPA
Text: as §1

RARα [4] = target: T1, RARα; assay: Binding, RARα (ligand binding assay); conditions: Table II
Text: (§2) The RARγ agonist selectivity of a compound can be determined by routine ligand binding assays known to one of skill in the art such as described in C. Apfel et al., Proc. Nat.

RARβ [5] = target: T2, RARβ; assay: Binding, RARβ (ligand binding assay); conditions: Table II
Text: as §2

RARγ [6] = target: T3, RARγ; assay: Binding, RARγ (ligand binding assay)
Text: as §2

[7] = test system: elastase-induced emphysema; assay: Alveolar repair in rat model of elastase-induced emphysema, intraperitoneal; assay type: in vivo, male Sprague Dawley rats; set-up: Alveolar Area: unit not given here
Method: Animals were divided into treatment groups of approximately eight. […] Three weeks post injury ATRA or a RAR selective agonist was dissolved in DMSO (20 mg/ml) and stored at -20 C. Fresh working stocks were prepared fresh daily by dilution in corn oil to a final concentration of 2 mg/ml. […] Control groups were challenged with elastase and 21 days later treated with Vehicle (DMSO/PBS) for 14 days. Animals were sacrificed 24 hours after the last dose of by exsanguination under deep anesthesia. Blood was collected at time of exanguination for analysis of changes in blood chemistry from respective treatments. The lungs were inflated with 10% neutral buffered formalin by intratracheal instillation at a constant rate (1 ml/gram body mass/min). The lung was excised and immersed in fixative for 24 hours prior to processing. Standard methods were used to prepare 5 um paraffin sections. Sections were stained with Hematoxylin and Eosin (H%E). Computerized Morphometric analysis was performed to determine the average alveolar size and alveolar number.

experimental emphysema = assay: Alveolar repair in rat experimental emphysema, oral dosing; assay type: in vivo, rats; conditions: 1 mg/kg/PO daily for two weeks
Method: (§3) Three (3) weeks post injury animals were treated with vehicle (Capmul solution) or retinoids prepared in Capmul and dosed orally at 1, 3, and 10 mg/kg body weight. Animals were treated for 14 days prior to termination of study.
Dosage was at 1 mg/kg/PO daily for two weeks.

[8] = Plasma triglyceride levels in rats; assay type: in vivo; conditions: plasma, 1 mg/kg/PO daily for two weeks
Method: as §3, with “Experimental emphysema was induced in rats as described in Example 2. Three” for “Three”, “study. Lung harvest and blood collection was performed as described in Example 2.” for “study.”
Quantitation of triglycerides contained in rat plasma was performed after using established procedures in a contact clinical laboratory facility. Briefly, plasma triglycerides were converted to dihdroxyacetone and H2 O2, by sequential treatment of plasma with lipase and glycerokinase according directions described by manufacturer of triglycerides/GPO kit (Boehringer Mannheim #1488872). H2 02 was quantitated calorimetrically in a Hitachi 911 Chemistry Analyzer. In rats normal triglyceride levels are 75-175 mg/dl.
Dosage was at 1 mg/kg/PO daily for two weeks. […] Therefore, it appears that RARα selective activity is linked to elevated triglyceride levels.

Work on `CCCCCCc1cc2c(cc1/C=C/c1ccc(C(=O)O)cc1)C(C)(C)CCC2(C)C` [RAR Agonist 3] yielded an EC50 (RARα [1]) of 1 µM, an EC50 (RARβ [2]) of 0.088 µM and an EC50 (RARγ [3]; Table II) of 0.015 µM. The EC50 (RARγ [3]; Table III) was 0.015 µM, the IC50 (RARα [4]) was 2.7 µM and the IC50 (RARβ [5]) was 3 µM. The IC50 (RARγ [6]; Table II) was 0.21 µM, the IC50 (RARγ [6]; Table III) was 0.21 µM and the “% Repair” value ([7]; 0.5 mg/kg ip once daily, from 21 days post injury, 14 days) was > 70%. The “Alveolar Area” value ([7]; 0.5 mg/kg ip once daily, from 21 days post injury, 14 days, naive 1637 +/- 153, elastase + vehicle 3570 +/- 319) was 1929 +/- 150, the “alveolar repair (in words)” value ([7]; elastase-treated rats, 0.5 mg/kg ip) was “markedly induce alveolar repair” and the “light micrographs of lung sections (in words)” value ([7]; rat lung damaged by elastase and then treated, compared to normal rat lung) was “showed alveolar area similar to the normal rat lung”. The “% Repair” value (experimental emphysema) was 73.7%, the “triglyceride levels (in words)” value [8] was “do not cause elevation in the triglyceride levels” and the “[Triglyceride]” value ([8]; normal rat 75-175 mg/dl) was 92 mg/dL.
